Test results reported in patent EP1276722B1, “NAPHTHAMIDINE UROKINASE INHIBITORS” (ABBOTT LABORATORIES, priority 2000, dated 2001).

Experiments:
[1] = system: angiogenesis; details: J. Cell Biol. 1991, 115[3 Pt 2], 402a; cited from earlier work
[2] = system: tumor metastasis; details: Anticancer Res. 1988, 8, 1373-1376; cited from earlier work
[3] = biological target: T1, urokinase enzyme Abbokinase (Homo sapiens, UniProt P00749); experiment: Inhibition of urokinase on chromogenic substrate S-2444; assay type: biochemical; details: read-out: Ki
T1 construct: purchased Abbott Laboratories, Abbott Park, IL
Experimental: Four concentrations were chosen, then 5 µl of each were diluted to a total assay volume of 200 µL. […] Several vials were reconstituted as directed on the vial, aliquoted, and stored frozen The enzyme was further diluted in assay buffer and 10 µL was used in the assay. Enzyme concentration in the assay was 2-3 nM. The assay was performed as follows: 175 µL of buffer was pipetted inta the polystyrene plate, and 5 µL solution of a compound of this invention in DMSO was added. The mixture was vortexed, treated with 10 µL of enzyme in buffer, vortexed, treated with 10 µL of substrate in water, and vortexed. […] The Spectromax® calculated the reaction rates which were used to calculate percent inhibition of the compounds of this invention versus the reaction rate of the enzyme in the absence of any inhibitor. The Ki's of the inhibitors were calculated from the percent inhibition and previously established Km.

Compound	Ki [3] [nM]	angiogenesis in vitro [1]	tumor metastasis in vivo [2]
N=C(N)NC(=O)c1nc(Cl)c(N)nc1N [Amiloride]		inhibit	inhibit
CCN1CCc2ccc(C3CC3c3ccc4cc(C(=N)N)ccc4c3)cc2C1C(C)C (centres unmarked) [Example 24, 6-(2-(2-ethyl-1-isopropyl-1,2,3,4-tetrahydro-7-isoquinolinyl)cyclopropyl)-2-naphthalenecarboximidamide]	54		
CC(C)C1=NCCc2ccc(C3CC3c3cc(/C=C/C(C)(C)C)c4cc(C(=N)N)ccc4c3)cc21 (centres unmarked) [Example 34, 8-((1E)-3,3-dimethyl-1-butenyl)-6-(2-(1-isopropyl-3,4-dihydro-7-isoquinolinyl)cyclopropyl)-2-naphthalenecarboximidamide]	51		
CCC1(CC)CN=C(C(C)C)c2ccc(C3CC3c3ccc4cc(C(=N)N)ccc4c3)cc21 (centres unmarked) [Example 31, 6-(2-(4,4-diethyl-1-isopropyl-3,4-dihydro-6-isoquinolinyl)cyclopropyl)-2-naphthalenecarboximidamide]	350		
CC(C)C1c2cc(C3CC3c3ccc4cc(C(=N)N)ccc4c3)ccc2CCN1Cc1cccnc1 (centres unmarked) [Example 21, 6-(2-(1-isopropyl-2-(3-pyridinylmethyl)-1,2,3,4-tetrahydro-7-isoquinolinyl)cyclopropyl)-2-naphthalenecarboximidamide]	84		
N=C(N)c1ccc2cc(C3CC3c3ccc4c(c3)C(C3CCCCC3)=NCC4)cc(Br)c2c1 (centres unmarked) [Example 56, 8-bromo-6-(2-(1-cyclohexyl-3,4-dihydro-7-isoquinolinyl)cyclopropyl)-2-naphthalenecarboximidamide]	18		
CC(C)C1c2cc(C3CC3c3ccc4cc(C(=N)N)ccc4c3)ccc2CCN1CCO (centres unmarked) [Example 26, 6-(2-(2-(2-hydroxyethyl)-1-isopropyl-1,2,3,4-tetrahydro-7-isoquinolinyl)cyclopropyl)-2-naphthalenecarboximidamide]	48		

Continued by falling Ki [3], values first:

Ki [3] [nM]	Compound	angiogenesis in vitro [1]	tumor metastasis in vivo [2]
1440	CC(C)C1c2cc(C3CC3c3ccc4cc(C(=N)N)ccc4c3)ccc2CCN1CC(F)(F)F (centres unmarked) [Example 33, 6-(2-(1-isopropyl-2-(2,2,2-trifluoroethyl)-1,2,3,4-tetrahydro-7-isoquinolinyl)cyclopropyl)-2-naphthalenecarboximidamide]		
343	CCC1CN=C(C(C)C)c2ccc(C3CC3c3ccc4cc(C(=N)N)ccc4c3)cc21 (centres unmarked) [Example 54, 6-(2-(4-ethyl-1-isopropyl-3,4-dihydro-6-isoquinolinyl)cyclopropyl)-2-naphthalenecarboximidamide]		
291	CC(C)C1=NCCc2ccc(C=Cc3cc(Br)c4cc(C(=N)N)ccc4c3)cc21 [Example 22, 8-bromo-6-(2-(1-isopropyl-3,4-dihydro-7-isoquinolinyl)ethenyl)-2-naphthalenecarboximidamide]		
120	CC(C)C1c2cc(C=Cc3ccc4cc(C(=N)N)ccc4c3)ccc2CCN1C (centres unmarked) [Example 16, 6-(2-(1-isopropyl-2-methyl-1,2,3,4-tetrahydro-7-isoquinolinyl)ethenyl)-2-naphthalenecarboximidamide]		
43	CCC1CNCc2ccc(C=Cc3ccc4cc(C(=N)N)ccc4c3)cc21 (centres unmarked) [Example 50, 6-(2-(4-ethyl-1,2,3,4-tetrahydro-6-isoquinolinyl)ethenyl)-2-naphthalenecarboximidamide]		
25	CC(C)C1c2cc(C3CC3c3cc(-c4ccoc4)c4cc(C(=N)N)ccc4c3)ccc2CCN1C (centres unmarked) [Example 3, 8-(3-furyl)-6-(2-(1-isopropyl-2-methyl-1,2,3,4-tetrahydro-7-isoquinolinyl)cyclopropyl)-2-naphthalenecarboximidamide]		
